Experiments:
Test in all cases: Bliss excess, mean over the matrix (fraction); higher = more synergy
786-0 (Kidney Carcinoma) = tested on: 786-0 (Kidney Carcinoma)
Procedure, shortened: (§1)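 After 24 hours at 37°C and 5% CO2 in 1536-well plates, cells in DMEM/F12 or RPMI plus 10% FBS received two-drug dose matrices for 72 hours. Viability came from CellTiter-Glo 2.0 luminescence and was scaled as inhibition, anchored at 0 by vehicle wells and at 1 by blank wells. Combination Emax is taken as the second-highest inhibition in the matrix, and Bliss excess as the observed combination effect less EA + EB − EA·EB, with EA and EB the single-agent effects.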

[1] = tested on: AN3-CA (Endometrial Carcinoma)
Procedure, shortened: as §1

[2] = tested on: CML-T1 (Chronic Myelogenous Leukemia)
Procedure, shortened: as §1

[3] = tested on: Calu-6 (Non-Small Cell Lung Carcinoma)
Procedure, shortened: as §1

[4] = tested on: Caov-3 (Ovarian Carcinoma)
Procedure, shortened: as §1

[5] = tested on: EB-3 (Burkitt's Lymphoma)
Procedure, shortened: as §1

ES-2 (Ovarian Carcinoma) = tested on: ES-2 (Ovarian Carcinoma)
Procedure, shortened: as §1

[6] = tested on: FLO-1 (Esophageal Adenocarcinoma)
Procedure, shortened: as §1

[7] = tested on: HTC-C3 (Thyroid Gland Carcinoma)
Procedure, shortened: as §1

HuO-3N1 (Osteosarcoma) = tested on: HuO-3N1 (Osteosarcoma)
Procedure, shortened: as §1

[8] = tested on: LAMA-84 (Chronic Myelogenous Leukemia)
Procedure, shortened: as §1

[9] = tested on: NCI-H1563 (Lung Adenocarcinoma)
Procedure, shortened: as §1

[10] = tested on: NCI-H1755 (Lung Adenocarcinoma)
Procedure, shortened: as §1

[11] = tested on: NCI-H196 (Small Cell Lung Carcinoma)
Procedure, shortened: as §1

[12] = tested on: PANC-02-03 (Pancreatic Carcinoma)
Procedure, shortened: as §1

[13] = tested on: RPMI-8866 (Chronic Myelogenous Leukemia)
Procedure, shortened: as §1

RT4 (Bladder Carcinoma) = tested on: RT4 (Bladder Carcinoma)
Procedure, shortened: as §1

[14] = tested on: SJRH30 (Rhabdomyosarcoma)
Procedure, shortened: as §1

[15] = tested on: SK-MM-2 (Plasma Cell Myeloma)
Procedure, shortened: as §1

[16] = tested on: SNU-175 (Colorectal Carcinoma)
Procedure, shortened: as §1

| SMILES | Bliss excess (786-0 (Kidney Carcinoma)) | Bliss excess [1] | Bliss excess [2] | Bliss excess [3] | Bliss excess [4] | Bliss excess [5] | Bliss excess (ES-2 (Ovarian Carcinoma)) | Bliss excess [6] | Bliss excess [7] | Bliss excess (HuO-3N1 (Osteosarcoma)) | Bliss excess [8] | Bliss excess [9] | Bliss excess [10] | Bliss excess [11] | Bliss excess [12] | Bliss excess [13] | Bliss excess (RT4 (Bladder Carcinoma)) | Bliss excess [14] | Bliss excess [15] | Bliss excess [16] |
| --- | --- | --- | --- | --- | --- | --- | --- | --- | --- | --- | --- | --- | --- | --- | --- | --- | --- | --- | --- | --- |
| CN(CCO)CC[C@H](CSc1ccccc1)Nc1ccc(S(=O)(=O)NC(=O)c2ccc(N3CCC([C@@H](O)c4ccccc4-c4ccc(Cl)cc4)CC3)cc2)cc1S(=O)(=O)C(F)(F)F [AZD4320] + C[C@@H]1COCCN1C2=NC(=NC(=C2)C3(CC3)[S@](=N)(=O)C)C4=C5C=CNC5=NC=C4 [AZD6738] (first compound max 1 µM, 7x7, partner max 10 µM) | -0.0263 | -0.0091 | 0.0149 | -0.0258 | -0.0186 | -0.0287 | -0.0061 | -0.0574 | -0.0305 | 0.0154 | -0.0093 | 0.0051 | -0.0214 | -0.0112 | -0.0584 | 0.0527 | 0.0064 | 0.0213 | -0.0126 | 0.0023 |
| CN(CCO)CC[C@H](CSc1ccccc1)Nc1ccc(S(=O)(=O)NC(=O)c2ccc(N3CCC([C@@H](O)c4ccccc4-c4ccc(Cl)cc4)CC3)cc2)cc1S(=O)(=O)C(F)(F)F [AZD4320] + C[C@@H](Nc1cc(F)cc(F)c1)c1cc(C(=O)N(C)C)cc2c(=O)cc(N3CCOCC3)oc12 [AZD8186] (first compound max 1 µM, 7x7, partner max 3 µM) | -0.0081 | -0.0339 | 0.0035 | 0.0264 | -0.019 | 0.0368 | 0.0151 | -0.0261 | 0.0311 | 0.0557 | 0.0355 | 0.0295 | 0.012 | 0.0427 | -0.0465 | 0.0244 | 0.032 | 0.0718 | 0.0197 | -0.0233 |
| CN(CCO)CC[C@H](CSc1ccccc1)Nc1ccc(S(=O)(=O)NC(=O)c2ccc(N3CCC([C@@H](O)c4ccccc4-c4ccc(Cl)cc4)CC3)cc2)cc1S(=O)(=O)C(F)(F)F [AZD4320] + Cc1cc2ncnn2cc1Nc1ncc2c(n1)n(C1CCOCC1)c(=O)n2C [AZD7648] (first compound max 1 µM, 7x7, partner max 10 µM) | -0.0428 | -0.0057 | 0.0044 | -0.0522 | -0.0199 | -0.0076 | -0.0186 | -0.0358 | 0.0016 | 0.0015 | -0.0161 | -0.0322 | -0.0279 | -0.0395 | -0.0568 | 0.0654 | -0.004 | -0.0072 | -0.0268 | -0.006 |
| CN(CCO)CC[C@H](CSc1ccccc1)Nc1ccc(S(=O)(=O)NC(=O)c2ccc(N3CCC([C@@H](O)c4ccccc4-c4ccc(Cl)cc4)CC3)cc2)cc1S(=O)(=O)C(F)(F)F [AZD4320] + Cn1cnc2c(F)c(Nc3ccc(Br)cc3Cl)c(C(=O)NOCCO)cc21 [Selumetinib] (first compound max 1 µM, 7x7, partner max 3 µM) | -0.0187 | 0.0455 | -0.0155 | -0.0019 | -0.0406 | -0.036 | 0.0164 | 0.0109 | 0.069 | -0.0194 | 0.0207 | 0.045 | 0.0081 | -0.0339 | -0.007 | 0.0349 | 0.112 | 0.0587 | 0.0514 | 0.0316 |
| Cc1c2c(nn1C)CSCc1cc(n(C)n1)CSc1cc(c3ccccc3c1)OCCCc1c(C(=O)O)n(C)c3c-2c(Cl)ccc13 [AZD5991] + C1CN(CCC1(C(=O)N[C@@H](CCO)C2=CC=C(C=C2)Cl)N)C3=NC=NC4=C3C=CN4 [Capivasertib] (first compound max 1 µM, 7x7, partner max 3 µM) | -0.0189 | 0.145 | -0.0081 | 0.0106 | -0.01 | -0.0013 | -0.0021 | -0.0072 | -0.0091 | 0.0122 | 0.0007 | 0.0837 | 0.0186 | -0.0499 | -0.037 | -0.0525 | 0.023 | 0.0568 | -0.0186 | 0.0213 |
| Cc1c2c(nn1C)CSCc1cc(n(C)n1)CSc1cc(c3ccccc3c1)OCCCc1c(C(=O)O)n(C)c3c-2c(Cl)ccc13 [AZD5991] + C=CCn1c(=O)c2cnc(Nc3ccc(N4CCN(C)CC4)cc3)nc2n1-c1cccc(C(C)(C)O)n1 [AZD1775] (first compound max 1 µM, partner max 1 µM) | -0.0387 | -0.0512 | -0.0151 | -0.0963 | -0.0274 | -0.0242 | -0.0399 | -0.0047 | 0.0091 | 0.006 | 0.0422 | 0.0004 | 0.0006 | -0.0266 | -0.0195 | -0.0441 | 0.0351 | -0.0362 | -0.112 | -0.0185 |
| Cc1c2c(nn1C)CSCc1cc(n(C)n1)CSc1cc(c3ccccc3c1)OCCCc1c(C(=O)O)n(C)c3c-2c(Cl)ccc13 [AZD5991] + CC1(C)CCC(CN2CCN(c3ccc(C(=O)NS(=O)(=O)c4ccc(NCC5CCOCC5)c([N+](=O)[O-])c4)c(Oc4cnc5[nH]ccc5c4)c3)CC2)=C(c2ccc(Cl)cc2)C1 [Venetoclax] (first compound max 1 µM, 7x7, partner max 1 µM) | -0.034 | 0.111 | 0.116 | -0.0014 | 0.0262 | -0.0151 | -0.0082 | -0.0597 | -0.0396 | 0.0087 | -0.0185 | 0.0236 | -0.0422 | -0.0251 | -0.0304 | -0.0138 | 0.135 | 0.0289 | 0.0209 | 0.107 |

Source: the supplement of paper PMC11061612
